According to ChEMBL document CHEMBL1154277, “Discovery of N-substituted pyridinones as potent and selective inhibitors of p38 kinase” (Bioorg Med Chem Lett, 2009):

How the values were obtained:
[1] = target: Phosphorylase b kinase gamma catalytic chain, skeletal muscle/heart isoform (Homo sapiens) (UniProt Q16816); assay: Inhibition of PHKgamma1 at 10 uM
[2] = target: Proto-oncogene tyrosine-protein kinase ROS (Homo sapiens) (UniProt P08922); assay: Inhibition of ROS1 at 10 uM
[3] = target: Dual specificity tyrosine-phosphorylation-regulated kinase 4 (Homo sapiens) (UniProt Q9NR20); assay: Inhibition of DYRK4 at 10 uM
[4] = target: Mitogen-activated protein kinase kinase kinase kinase 2 (Homo sapiens) (UniProt Q12851); assay: Inhibition of GCK at 10 uM
[5] = target: Serine/threonine-protein kinase PAK 3 (Homo sapiens) (UniProt O75914); assay: Inhibition of PAK3 at 10 uM
[6] = target: Glycogen synthase kinase-3 alpha (Homo sapiens) (UniProt P49840); assay: Inhibition of GSK3alpha at 10 uM
[7] = target: Insulin receptor (Homo sapiens) (UniProt P06213); assay: Inhibition of INSR at 10 uM
[8] = target: Insulin-like growth factor 1 receptor (Homo sapiens) (UniProt P08069); assay: Inhibition of IGF1R at 10 uM
[9] = target: Ephrin type-A receptor 1 (Homo sapiens) (UniProt P21709); assay: Inhibition of EPHA1 at 10 uM
[10] = target: Macrophage colony-stimulating factor 1 receptor (Homo sapiens) (UniProt P07333); assay: Inhibition of CSF1R at 10 uM
[11] = target: Ribosomal protein S6 kinase beta-1 (Homo sapiens) (UniProt P23443); assay: Inhibition of p70S6K at 10 uM
[12] = target: Tyrosine-protein kinase BTK (Homo sapiens) (UniProt Q06187); assay: Inhibition of BTK at 10 uM
[13] = target: Misshapen-like kinase 1 (Homo sapiens) (UniProt Q8N4C8); assay: Inhibition of MINK1 at 10 uM
[14] = target: Fibroblast growth factor receptor 1 (Homo sapiens) (UniProt P11362); assay: Inhibition of FGFR1 at 10 uM
[15] = target: Tyrosine-protein kinase CSK (Homo sapiens) (UniProt P41240); assay: Inhibition of CSK at 10 uM
[16] = target: CDK9/cyclin T1 (Homo sapiens) (UniProt O60563+P50750); assay: Inhibition of CDK9/cyclin T1 at 10 uM; type: protein-complex assay
[17] = target: Mitogen-activated protein kinase 8 (Homo sapiens) (UniProt P45983); assay: Inhibition of JNK1 at 10 uM
[18] = target: cAMP-dependent protein kinase catalytic subunit PRKX (Homo sapiens) (UniProt P51817); assay: Inhibition of PRKX at 10 uM
[19] = target: Serine/threonine-protein kinase pim-2 (Homo sapiens) (UniProt Q9P1W9); assay: Inhibition of PIM2 at 10 uM
[20] = target: Serine/threonine-protein kinase 25 (Homo sapiens) (UniProt O00506); assay: Inhibition of YSK1 at 10 uM
[21] = target: Leukocyte tyrosine kinase receptor (Homo sapiens) (UniProt P29376); assay: Inhibition of LTK at 10 uM
[22] = target: Serine/threonine-protein kinase PLK1 (Homo sapiens) (UniProt P53350); assay: Inhibition of PLK1 at 10 uM
[23] = target: AMP-activated protein kinase (AMPK) alpha-1/beta-1/gamma-1 (Homo sapiens) (UniProt P54619+Q9Y478+Q13131); assay: Inhibition of AMPK alpha-1/beta-1/gamma-1 at 10 uM; type: protein-complex assay
[24] = target: Serine/threonine-protein kinase MRCK beta (Homo sapiens) (UniProt Q9Y5S2); assay: Inhibition of MRCKbeta at 10 uM
[25] = target: Mitogen-activated protein kinase kinase kinase kinase 4 (Homo sapiens) (UniProt O95819); assay: Inhibition of HGK at 10 uM
[26] = system: Leucine-rich repeat serine/threonine-protein kinase 2 (Homo sapiens), Q5S007 [G2019S]; assay: Inhibition of LRRK2 G2019S mutant at 10 uM
[27] = target: Macrophage-stimulating protein receptor (Homo sapiens) (UniProt Q04912); assay: Inhibition of RON at 10 uM
[28] = target: Serine/threonine-protein kinase Nek9 (Homo sapiens) (UniProt Q8TD19); assay: Inhibition of NEK9 at 10 uM
[29] = target: Calcium/calmodulin-dependent protein kinase type IV (Homo sapiens) (UniProt Q16566); assay: Inhibition of CAMK4 at 10 uM
[30] = target: Serine/threonine-protein kinase BRSK1 (Homo sapiens) (UniProt Q8TDC3); assay: Inhibition of BRSK1 at 10 uM
[31] = system: Epidermal growth factor receptor (Homo sapiens), P00533 [L861Q]; assay: Inhibition of EGFR L861Q (mutant) at 10 uM; type: protein assay
[32] = target: Protein kinase C alpha type (Homo sapiens) (UniProt P17252); assay: Inhibition of PKCalpha at 10 uM
[33] = target: Platelet-derived growth factor receptor alpha (Homo sapiens) (UniProt P16234); assay: Inhibition of PDGFRalpha at 10 uM
[34] = target: Tyrosine-protein kinase ITK/TSK (Homo sapiens) (UniProt Q08881); assay: Inhibition of ITK at 10 uM
[35] = target: G protein-coupled receptor kinase 6 (Homo sapiens) (UniProt P43250); assay: Inhibition of GRK6 at 10 uM
[36] = Inhibition of PKG2 at 10 uM
[37] = target: Receptor tyrosine-protein kinase erbB-4 (Homo sapiens) (UniProt Q15303); assay: Inhibition of ERBB4 at 10 uM
[38] = target: Mitogen-activated protein kinase 1 (Homo sapiens) (UniProt P28482); assay: Inhibition of ERK2 at 10 uM
[39] = target: Dual specificity mitogen-activated protein kinase kinase 6 (Homo sapiens) (UniProt P52564); assay: Inhibition of MKK6 at 10 uM
[40] = target: Ephrin type-A receptor 4 (Homo sapiens) (UniProt P54764); assay: Inhibition of EPHA4 at 10 uM
[41] = target: Serine/threonine-protein kinase Nek7 (Homo sapiens) (UniProt Q8TDX7); assay: Inhibition of NEK7 at 10 uM
[42] = system: Serine/threonine-protein kinase B-raf (Homo sapiens), P15056 [V600E]; assay: Inhibition of B-Raf V599E (mutant) at 10 uM
[43] = target: MAP kinase-activated protein kinase 5 (Homo sapiens) (UniProt Q8IW41); assay: Inhibition of PRAK at 10 uM
[44] = target: Focal adhesion kinase 1 (Homo sapiens) (UniProt Q05397); assay: Inhibition of FAK at 10 uM
[45] = target: Aurora kinase C (Homo sapiens) (UniProt Q9UQB9); assay: Inhibition of Aurora C at 10 uM
[46] = target: Serine/threonine-protein kinase Nek6 (Homo sapiens) (UniProt Q9HC98); assay: Inhibition of NEK6 at 10 uM
[47] = target: Cytoplasmic tyrosine-protein kinase BMX (Homo sapiens) (UniProt P51813); assay: Inhibition of BMX at 10 uM

Measured: inhibition

Dual specificity tyrosine-phosphorylation-regulated kinase 4 (Homo sapiens), sequence (Q9NR20 whole entry): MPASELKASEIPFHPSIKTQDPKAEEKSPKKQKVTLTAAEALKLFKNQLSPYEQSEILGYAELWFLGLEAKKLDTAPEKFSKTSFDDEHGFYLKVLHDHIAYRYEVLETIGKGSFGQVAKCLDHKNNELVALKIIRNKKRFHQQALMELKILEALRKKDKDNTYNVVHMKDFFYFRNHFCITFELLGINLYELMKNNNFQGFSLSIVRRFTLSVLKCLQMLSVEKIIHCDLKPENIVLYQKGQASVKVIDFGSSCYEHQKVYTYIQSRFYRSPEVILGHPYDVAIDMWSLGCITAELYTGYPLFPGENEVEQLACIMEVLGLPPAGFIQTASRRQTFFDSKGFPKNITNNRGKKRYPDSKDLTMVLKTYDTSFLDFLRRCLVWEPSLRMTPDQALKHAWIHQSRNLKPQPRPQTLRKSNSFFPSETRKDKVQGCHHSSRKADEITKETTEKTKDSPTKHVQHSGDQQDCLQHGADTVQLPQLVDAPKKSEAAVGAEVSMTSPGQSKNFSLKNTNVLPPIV
Leukocyte tyrosine kinase receptor (Homo sapiens), sequence (P29376 whole entry): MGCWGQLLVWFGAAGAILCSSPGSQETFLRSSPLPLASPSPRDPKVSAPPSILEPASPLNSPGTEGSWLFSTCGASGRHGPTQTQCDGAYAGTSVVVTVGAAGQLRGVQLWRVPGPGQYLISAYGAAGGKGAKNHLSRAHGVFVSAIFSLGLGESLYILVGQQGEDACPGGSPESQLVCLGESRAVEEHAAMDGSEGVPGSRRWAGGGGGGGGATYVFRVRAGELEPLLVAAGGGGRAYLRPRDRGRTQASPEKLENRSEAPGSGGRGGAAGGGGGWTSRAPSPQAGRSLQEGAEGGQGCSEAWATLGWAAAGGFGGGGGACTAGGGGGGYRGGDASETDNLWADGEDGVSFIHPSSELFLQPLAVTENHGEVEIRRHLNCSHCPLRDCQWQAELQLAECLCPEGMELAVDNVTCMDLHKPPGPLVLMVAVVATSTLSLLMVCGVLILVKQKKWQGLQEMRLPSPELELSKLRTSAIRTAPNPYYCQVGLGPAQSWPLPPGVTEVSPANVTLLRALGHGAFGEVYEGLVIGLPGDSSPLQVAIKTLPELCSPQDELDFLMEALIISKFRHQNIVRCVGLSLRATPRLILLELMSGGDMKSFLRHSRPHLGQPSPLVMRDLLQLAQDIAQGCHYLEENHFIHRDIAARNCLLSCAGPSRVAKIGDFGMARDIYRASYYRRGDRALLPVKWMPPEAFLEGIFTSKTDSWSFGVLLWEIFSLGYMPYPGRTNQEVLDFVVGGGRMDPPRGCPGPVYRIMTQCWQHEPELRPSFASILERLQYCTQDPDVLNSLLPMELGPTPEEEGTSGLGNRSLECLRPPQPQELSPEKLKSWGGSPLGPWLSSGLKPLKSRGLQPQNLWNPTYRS
Tyrosine-protein kinase BTK (Homo sapiens), sequence (Q06187 whole entry): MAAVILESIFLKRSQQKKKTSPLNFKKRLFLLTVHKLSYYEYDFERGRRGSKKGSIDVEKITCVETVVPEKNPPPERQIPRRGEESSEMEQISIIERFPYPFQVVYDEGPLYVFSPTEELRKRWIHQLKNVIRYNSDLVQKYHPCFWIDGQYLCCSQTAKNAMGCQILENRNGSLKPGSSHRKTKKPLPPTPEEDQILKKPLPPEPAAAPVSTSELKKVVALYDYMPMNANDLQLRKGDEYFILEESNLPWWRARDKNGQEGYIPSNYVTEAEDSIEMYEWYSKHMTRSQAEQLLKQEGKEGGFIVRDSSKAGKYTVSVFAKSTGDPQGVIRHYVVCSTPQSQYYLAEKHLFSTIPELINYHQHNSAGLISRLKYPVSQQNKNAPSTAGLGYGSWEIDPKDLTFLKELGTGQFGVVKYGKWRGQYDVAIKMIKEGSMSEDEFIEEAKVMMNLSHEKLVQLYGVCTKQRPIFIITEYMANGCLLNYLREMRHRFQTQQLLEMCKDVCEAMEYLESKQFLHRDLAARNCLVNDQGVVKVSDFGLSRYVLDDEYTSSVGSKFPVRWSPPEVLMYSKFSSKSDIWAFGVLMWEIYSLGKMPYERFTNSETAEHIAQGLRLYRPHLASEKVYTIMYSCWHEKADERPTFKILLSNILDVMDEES
Tyrosine-protein kinase ITK/TSK (Homo sapiens), sequence (Q08881 whole entry): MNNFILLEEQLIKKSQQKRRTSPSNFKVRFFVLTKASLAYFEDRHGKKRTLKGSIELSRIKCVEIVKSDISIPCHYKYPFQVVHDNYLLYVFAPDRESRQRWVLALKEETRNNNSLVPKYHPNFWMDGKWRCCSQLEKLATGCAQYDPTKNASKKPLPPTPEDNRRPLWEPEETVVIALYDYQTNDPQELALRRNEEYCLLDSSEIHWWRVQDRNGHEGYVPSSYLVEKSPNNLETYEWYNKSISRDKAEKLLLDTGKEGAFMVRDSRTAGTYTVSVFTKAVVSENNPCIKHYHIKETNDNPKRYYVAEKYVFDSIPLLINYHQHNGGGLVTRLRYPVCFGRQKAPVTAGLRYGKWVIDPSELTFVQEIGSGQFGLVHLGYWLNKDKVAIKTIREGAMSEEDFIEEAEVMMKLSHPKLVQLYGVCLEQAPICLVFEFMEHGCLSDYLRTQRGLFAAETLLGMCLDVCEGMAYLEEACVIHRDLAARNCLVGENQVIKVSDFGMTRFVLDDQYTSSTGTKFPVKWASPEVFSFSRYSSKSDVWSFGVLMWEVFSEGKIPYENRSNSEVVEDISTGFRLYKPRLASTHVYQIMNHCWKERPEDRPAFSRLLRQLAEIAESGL
Insulin receptor (Homo sapiens), sequence (P06213 28-758 limits assumed): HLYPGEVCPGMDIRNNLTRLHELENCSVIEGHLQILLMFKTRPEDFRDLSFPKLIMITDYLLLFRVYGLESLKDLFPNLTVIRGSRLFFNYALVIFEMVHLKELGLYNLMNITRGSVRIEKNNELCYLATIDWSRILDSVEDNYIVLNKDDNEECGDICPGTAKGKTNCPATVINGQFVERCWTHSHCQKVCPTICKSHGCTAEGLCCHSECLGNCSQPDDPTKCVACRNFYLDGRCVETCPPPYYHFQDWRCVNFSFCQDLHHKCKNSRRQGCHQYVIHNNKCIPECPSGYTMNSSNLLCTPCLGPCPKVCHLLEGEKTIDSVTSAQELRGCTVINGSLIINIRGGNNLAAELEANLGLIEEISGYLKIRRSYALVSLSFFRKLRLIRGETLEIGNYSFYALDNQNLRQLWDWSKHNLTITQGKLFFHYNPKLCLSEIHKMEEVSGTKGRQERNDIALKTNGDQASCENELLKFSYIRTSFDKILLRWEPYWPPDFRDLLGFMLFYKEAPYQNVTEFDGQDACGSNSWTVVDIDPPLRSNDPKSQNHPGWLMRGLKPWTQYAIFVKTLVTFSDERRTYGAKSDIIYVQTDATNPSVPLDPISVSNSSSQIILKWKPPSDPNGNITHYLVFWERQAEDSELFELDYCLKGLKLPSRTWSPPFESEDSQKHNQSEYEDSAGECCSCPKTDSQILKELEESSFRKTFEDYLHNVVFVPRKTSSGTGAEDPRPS
Insulin receptor (Homo sapiens), sequence (P06213 763-1382 limits assumed): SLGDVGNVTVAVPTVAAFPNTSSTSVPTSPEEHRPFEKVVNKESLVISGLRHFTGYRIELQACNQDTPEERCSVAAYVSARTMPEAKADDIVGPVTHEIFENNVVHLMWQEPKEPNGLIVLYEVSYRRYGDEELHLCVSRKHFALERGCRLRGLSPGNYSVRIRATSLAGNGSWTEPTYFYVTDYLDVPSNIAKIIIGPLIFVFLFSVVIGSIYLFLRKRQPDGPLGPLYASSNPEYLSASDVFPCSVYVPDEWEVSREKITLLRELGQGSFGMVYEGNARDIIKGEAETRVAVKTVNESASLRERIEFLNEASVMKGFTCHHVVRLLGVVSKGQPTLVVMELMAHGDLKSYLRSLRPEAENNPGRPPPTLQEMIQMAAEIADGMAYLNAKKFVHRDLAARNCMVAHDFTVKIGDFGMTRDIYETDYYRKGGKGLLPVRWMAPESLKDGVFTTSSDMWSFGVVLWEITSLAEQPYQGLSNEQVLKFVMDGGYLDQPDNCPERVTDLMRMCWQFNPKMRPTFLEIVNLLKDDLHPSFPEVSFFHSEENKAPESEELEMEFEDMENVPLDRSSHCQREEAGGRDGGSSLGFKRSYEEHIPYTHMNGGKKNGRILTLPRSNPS
Mitogen-activated protein kinase 8 (Homo sapiens), sequence (P45983 whole entry): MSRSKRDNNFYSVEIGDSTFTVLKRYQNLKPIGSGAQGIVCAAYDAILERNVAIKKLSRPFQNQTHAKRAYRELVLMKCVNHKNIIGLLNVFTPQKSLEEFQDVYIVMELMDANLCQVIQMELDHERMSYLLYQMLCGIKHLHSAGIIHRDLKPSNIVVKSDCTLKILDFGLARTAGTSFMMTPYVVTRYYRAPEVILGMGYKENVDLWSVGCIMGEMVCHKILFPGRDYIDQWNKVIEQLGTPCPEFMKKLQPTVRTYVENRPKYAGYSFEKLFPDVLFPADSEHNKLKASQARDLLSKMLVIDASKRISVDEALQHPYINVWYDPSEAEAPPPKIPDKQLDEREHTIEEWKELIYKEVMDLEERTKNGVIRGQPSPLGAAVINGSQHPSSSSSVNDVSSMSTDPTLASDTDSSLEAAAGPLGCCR
Phosphorylase b kinase gamma catalytic chain, skeletal muscle/heart isoform (Homo sapiens), sequence (Q16816 whole entry, looked up, canonical isoform): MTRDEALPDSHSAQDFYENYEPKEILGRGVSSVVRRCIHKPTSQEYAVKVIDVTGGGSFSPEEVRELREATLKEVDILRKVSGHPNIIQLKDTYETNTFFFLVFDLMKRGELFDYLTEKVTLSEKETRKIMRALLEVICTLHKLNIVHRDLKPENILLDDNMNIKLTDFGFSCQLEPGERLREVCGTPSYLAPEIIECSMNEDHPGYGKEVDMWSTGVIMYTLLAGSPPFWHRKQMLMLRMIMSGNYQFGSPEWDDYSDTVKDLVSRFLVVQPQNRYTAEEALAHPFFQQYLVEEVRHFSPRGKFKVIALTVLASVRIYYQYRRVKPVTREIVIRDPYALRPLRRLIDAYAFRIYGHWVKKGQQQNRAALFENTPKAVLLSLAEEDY

Cc1cc(OCc2ccc(F)cc2F)c(Br)c(=O)n1Cc1ccc(CN(C)C)cc1
< 50%: all assays above
